From patent US11891634B2, “PDE5A destabilizing domains” (The Board of Trustees of the Leland Stanford Junior …, priority 2017, dated 2024)

Legend:
[1] = test system: NIH3T3 cells expressing AcGFP-PDE5A fusions; test: FACS analysis of C-terminal PDE5A mutants (AcGFP-PDE5A fusions), Sildenafil vs vehicle; type: cell-based, mouse; details: for Mean Fluorescence intensity: NIH3T3; for Stabilization ratio: Sildenafil 10 μM vs vehicle alone; for basal expression in the absence of ligand (in words): extended PDE5A variants, NIH3T3, no Sildenafil
Protocol: (§1) The NIH3T3 cell line was cultured in DMEM supplemented with 10% heat-inactivated donor bovine serum (Invitrogen), 2 mM glutamine, 100 U/ml penicillin and 100 μg/ml streptomycin.
(§2) The ΦNX ecotropic packaging cell line was transfected using standard Lipofectamine 2000 protocols. Viral supernatants were harvested 48 hours, post transfection, filtered and concentrated 10-fold using Amicon Ultra centrifugal filter device with a 100kDa cutoff. NIH 3T3 cells were incubated with concentrated retroviral supernatants supplemented with 4 μg/ml polybrene for 4 hours at 37° C. Cells were washed once with PBS and cultured in growth media for 24-36 hours to allow for viral integration.
(§3) The transduced NIH3T3 cells were subjected to analysis using fluorescence-activated cell sorting (FACS) to screen the libraries of PDE5A mutants. 24 hours prior to analysis, transduced NIH3T3 cells were plated at 1×10^5 cells per well of a 12-well plate. Cells were removed from the plate using PBS and 2 mM EDTA, washed once with PBS, and resuspended in 200 μL, PBS. FACS analysis was performed on instruments at the Stanford Shared FACS Facility with 10,000 events represented.
(§4) To identify destabilizing domains that are responsive to the PDE5A ligand, Sildenafil, a cell-based screening assay was employed in which the fluorescence of green fluorescent protein derived from Aequorea coerulescens (AcGFP) served as an indicator of PDE5A stability. A library based on the PDE5A catalytic domain sequences was generated using error prone PCR and then cloned in-frame in front of AcGFP. A Moloney murine leukemia retroviral expression was used to stably integrate this library of PDE5A-AcGFP fusions into NIH-3T3 fibroblasts, and the transduced cells were subjected to three rounds of sorting using flow cytometry. In the first round, cells were treated with 10 μM of PDE5A ligand, Sildenafil for 16-24 before analysis. Fluorescent cells were collected and further cultured in the absence of ligand for 60 hours.
(§5) A library of AcGFP-PDE5A fusions i.e., C-terminal PDE5A mutants was screened using the cell-based screening assay described previously to identify C-terminal destabilizing domains. […] Identified candidates were subjected to further characterization by FACS. Cells were split into two treatment groups and incubated with either Sildenafil (10 μM) or vehicle alone for 24 hours. Cells that were mock transduced or transduced with the wild-type PDE5A construct were also included in the analysis. The stabilization ratio was calculated as the fold change in GFP intensity of the AcGFP-PDE5A construct in Sildenafil treated sample compared to vehicle alone treated sample. The results are presented in Table 2 where the C terminal PDE5A mutants are denoted as PDE5AC.
Residue D764 was identified as a mutational hotspot from sequence analysis. PDE5AC (#41) was engineered with either D764N or D764G mutation via site-directed mutagenesis. PDE5AC (#41) +D764N comprises the amino acid sequence of SEQ ID NO. 53 (encoded by SEQ ID NO. 54) and PDE5AC (#41) +D764G comprises the amino acid sequence of SEQ ID NO. 55 (encoded by SEQ ID NO. 56). AcGFP-PDE5A variants were evaluated for Sildenafil dependent stabilization via FACS as described previously. Results from FACS analysis are presented in Table 4 where the C terminal PDE5A mutants are denoted as PDE5AC. The stabilization ratio was calculated as the fold change in GFP intensity of the AcGFP-PDE5A construct in Sildenafil treated sample compared to vehicle alone treated sample.
Extended versions of human PDE5A that included residues in addition to catalytic domain (residues 535-860 of SEQ ID NO. 1) with Q589R polymorphism (SEQ ID NO. 11) were evaluated for use as C-terminal destabilizing domains. Three extended PDE5A sequences were tested that consisted of residues 535-875 of SEQ ID NO. 1 with Q589R polymorphism (SEQ ID NO. 13); residues 466-875 of SEQ ID NO. 1 with Q589R polymorphism (SEQ ID NO. 15); or residues 420-875 of SEQ ID NO. […]

PDE5A-AcGFP fusions = test: FACS analysis of N-terminal PDE5A mutants (PDE5A-AcGFP fusions), Sildenafil vs vehicle; type: cell-based, mouse; details: 24 hours; for Stabilization ratio: Sildenafil 20 μM vs vehicle alone; for Mean Fluorescence Intensity (MFI) Sildenafil (20 μM) / Mean Fluorescence Intensity (MFI) Vehicle control: NIH3T3; for Mean Fluorescence Intensity (MFI) Vehicle control: vehicle alone
Protocol: as §1, §2, §3, §4
as §5, with “PDE5A-AcGFP” for “AcGFP-PDE5A”, “N-terminal” for “C-terminal”, “mutants,” for “mutants”, “(20” for “(10”, “The results are presented in Table 6 where the N terminal PDE5A mutants are denoted as PDE5AN. The” for “The”, “sample.” for “sample. The results are presented in Table 2 where the C terminal PDE5A mutants are denoted as PDE5AC.”

[2] = Table 5 (extended variants), Sildenafil (10 μM) +
[3] = Table 5 (extended variants), Sildenafil (10 μM) −
[4] = Table 2, Sildenafil (10 μM) +, 24 hours
[5] = Table 2, Sildenafil (10 μM) −, vehicle alone, 24 hours
[6] = Table 2, fold change in GFP intensity, 24 hours
[7] = Table 4 (D764 mutations), Sildenafil (10 μM) +
[8] = Table 4 (D764 mutations), Sildenafil (10 μM) −

Substance | Mean Fluorescence intensity [1, 2] | Mean Fluorescence intensity [1, 3] | Stabilization ratio ([1]; Table 5) | basal expression in the absence of ligand (in words) [1] | Stabilization ratio (PDE5A-AcGFP fusions) | Mean Fluorescence Intensity (MFI) Sildenafil (20 μM) (PDE5A-AcGFP fusions) | Mean Fluorescence Intensity (MFI) Vehicle control (PDE5A-AcGFP fusions) | further results
PDE5AC 420-875 (Q589R): AcGFP fused to residues 420-875 of SEQ ID NO. 1 with Q589R polymorphism, SEQ ID NO. 17 | 572 | 620 | 0.9 | low basal expression |  |  |  | 
PDE5AC 466-875 (Q589R): AcGFP fused to residues 466-875 of SEQ ID NO. 1 with Q589R polymorphism, SEQ ID NO. 15 | 888 | 819 | 1.1 | low basal expression |  |  |  | 
PDE5AC 535-860 (Q589R): AcGFP fused to PDE5A catalytic domain residues 535-860 with Q589R polymorphism, SEQ ID NO. 11 [reference compound] | 8557 | 8431 | 1.0 | high basal expression |  |  |  | 
PDE5AC 535-875 (Q589R): AcGFP fused to residues 535-875 of SEQ ID NO. 1 with Q589R polymorphism, SEQ ID NO. 13 | 6462 | 6761 | 1.0 | high basal expression |  |  |  | 
PDE5AC (#8): AcGFP fused to C-terminal DD 535-860 of PDE5A (F561L, F564L, Q589R, D724N, S766F, T802P), SEQ ID NO. 34 |  |  |  |  |  |  |  | Mean Fluorescence intensity [1, 4]: 3310; Mean Fluorescence intensity [1, 5]: 1066; Stabilization ratio [1, 6]: 3.1
PDE5AC (#40): AcGFP fused to C-terminal DD 535-860 of PDE5A (Q589R, D764G), SEQ ID NO. 26 |  |  |  |  |  |  |  | Mean Fluorescence intensity [1, 4]: 5923; Mean Fluorescence intensity [1, 5]: 1255; Stabilization ratio [1, 6]: 4.7; Mean Fluorescence intensity [1, 7]: 4229; Mean Fluorescence intensity [1, 8]: 917; Stabilization ratio ([1]; Table 4): 4.6
PDE5AC (#41) + D764G: PDE5AC (#41) engineered with D764G mutation, SEQ ID NO. 55 |  |  |  |  |  |  |  | Mean Fluorescence intensity [1, 7]: 730; Mean Fluorescence intensity [1, 8]: 709; Stabilization ratio ([1]; Table 4): 1.0
PDE5AC (#41) + D764N: PDE5AC (#41) engineered with D764N mutation, SEQ ID NO. 53 |  |  |  |  |  |  |  | Mean Fluorescence intensity [1, 7]: 1007; Mean Fluorescence intensity [1, 8]: 684; Stabilization ratio ([1]; Table 4): 1.5
PDE5AN (#19): N-terminal DD 535-860 of PDE5A (Q589R, I599V, T711A, F744L, L746S, L804P), SEQ ID NO. 31, fused to AcGFP |  |  |  |  | 2.86 | 4297 | 1502 | 
PDE5AN (#30): N-terminal DD 535-860 of PDE5A (Q589R, L675P, F755L), SEQ ID NO. 69, fused to AcGFP |  |  |  |  | 4.46 | 4713 | 1056 | 
PDE5AN (#35): N-terminal DD 535-860 of PDE5A (S560G, V585A, N587S, Q589R, K591E, S663P, F840S), SEQ ID NO. 32, fused to AcGFP |  |  |  |  | 2.50 | 3684 | 1476 | 
PDE5AN (#55): N-terminal DD 535-860 of PDE5A (Q589R, I648V, M816T), SEQ ID NO. 33, fused to AcGFP |  |  |  |  | 2.87 | 3602 | 1257 | 
PDE5AN (#57): N-terminal DD 535-860 of PDE5A (N587S, Q589R, K608E, N661S, D764V), SEQ ID NO. 68, fused to AcGFP |  |  |  |  | 7.6 | 5851 | 770 | 
